Test results: PubChem BioAssay AID216 (DTP/NCI, 2004)
Where “and” joins values, the source holds several entries; their conditions need not be identical. Equal entries are not always repeated. Inconclusive results and toxic doses are left out.

Test system: BDF1 mice, P288 leukemia ip, survival T/C
Experiment: NCI In Vivo Anticancer Drug Screen. Data for tumor model P288 Lymphocytic Leukemia (intraperitoneal) in B6D2F1 (BDF1) mice
Conditions: endpoint: survival time, mean or median, higher = longer survival
Method: The antitumor activity of compounds was measured in mice bearing transplantable tumors. Survival or tumor size were measured and the results are expressed as the measurement made in the treated group (T) divided by the measurement made in the vehicle treated control group (C). The tumor model used in this assay is P288 Lymphocytic Leukemia (intraperitoneal) in B6D2F1 (BDF1) mice

[1] = dose: 3.1 mg/kg/injection, schedule: Q01DX Z (ip), vehicle: carboxymethylcellulose (CMC)
[2] = dose: 6.25 mg/kg/injection, schedule: Q01DX Z (ip), vehicle: carboxymethylcellulose (CMC)
[3] = dose: 12.5 mg/kg/injection, schedule: Q01DX Z (ip), vehicle: carboxymethylcellulose (CMC)
[4] = dose: 31.3 mg/kg/injection, schedule: Q01DX010 (ip), vehicle: saline
[5] = dose: 62.5 mg/kg/injection, schedule: Q01DX010 (ip), vehicle: saline
[6] = dose: 125.0 mg/kg/injection, schedule: Q01DX010 (ip), vehicle: saline
[7] = dose: 250.0 mg/kg/injection, schedule: Q01DX010 (ip), vehicle: saline
[8] = dose: 25.0 mg/kg/injection, schedule: Q01DX Z (ip), vehicle: carboxymethylcellulose (CMC)
[9] = dose: 250.0 mg/kg/injection, schedule: Q01DX Z (ip), vehicle: carboxymethylcellulose (CMC)
[10] = dose: 500.0 mg/kg/injection, schedule: Q01DX010 (ip), vehicle: saline
[11] = dose: 5.0 mg/kg/injection, schedule: Q01DX010 (ip), vehicle: saline
[12] = dose: 10.0 mg/kg/injection, schedule: Q01DX010 (ip), vehicle: saline
[13] = dose: 20.0 mg/kg/injection, schedule: Q01DX010 (ip), vehicle: saline
[14] = dose: 40.0 mg/kg/injection, schedule: Q01DX010 (ip), vehicle: saline
[15] = dose: 0.5 mg/kg/injection, schedule: Q01DX010 (ip), vehicle: saline
[16] = dose: 1.0 mg/kg/injection, schedule: Q01DX010 (ip), vehicle: saline
[17] = dose: 7.5 mg/kg/injection, schedule: Q01DX Z (ip), vehicle: carboxymethylcellulose (CMC)

CS(=O)(=O)OCCCl
T/C [1]: 88 % of control
T/C [2]: 89 % of control
T/C [3]: 86 % of control and 89 % of control
T/C (dose: 18.8 mg/kg/injection, schedule: Q01DX010 (ip), vehicle: saline): 88 % of control and 95 % of control
T/C (dose: 37.5 mg/kg/injection, schedule: Q01DX010 (ip), vehicle: saline): 90 % of control and 94 % of control
T/C (dose: 75.0 mg/kg/injection, schedule: Q01DX010 (ip), vehicle: saline): 90 % of control and 100 % of control
T/C (dose: 150.0 mg/kg/injection, schedule: Q01DX010 (ip), vehicle: saline): 105 % of control and 90 % of control

CCN(CCNc1ccc(C)c2sc3cc(Cl)ccc3c(=O)c12)CC(C)O (stereo not given)
T/C [4]: 112 % of control
T/C [5]: 94 % of control
T/C [6]: 105 % of control
T/C [7]: 118 % of control and 94 % of control

O=C(O)CCCc1ccc(N(CCCl)CCCl)cc1
T/C [1]: 110 % of control
T/C (dose: 3.13 mg/kg/injection, schedule: Q01DX010 (ip), vehicle: saline): 88 % of control
T/C (dose: 6.25 mg/kg/injection, schedule: Q01DX010 (ip), vehicle: saline): 100 % of control
T/C [2]: 90 % of control
T/C (dose: 12.5 mg/kg/injection, schedule: Q01DX010 (ip), vehicle: saline): 100 % of control
T/C [3]: 106 % of control
T/C [8]: 114 % of control and 88 % of control

O=c1[nH]c(=O)n(C2CC(O)C(CO)O2)cc1I (stereo not given)
T/C (dose: 63.0 mg/kg/injection, schedule: Q01DX Z (ip), vehicle: carboxymethylcellulose (CMC)): 104 % of control
T/C [9]: 124 % of control
T/C (dose: 1000.0 mg/kg/injection, schedule: Q01DX010 (ip), vehicle: saline): 116 % of control

Nc1c(Br)cc2c(c1Br)Cc1cc([N+](=O)[O-])ccc1-2
T/C (dose: 15.6 mg/kg/injection, schedule: Q01DX010 (ip), vehicle: saline): 122 % of control
T/C [4]: 116 % of control
T/C [5]: 111 % of control and 116 % of control
T/C [6]: 116 % of control and 94 % of control
T/C [10]: 88 % of control

Cn1cnc([N+](=O)[O-])c1Sc1nc(N)nc2nc[nH]c12
T/C (dose: 0.25 mg/kg/injection, schedule: Q01DX Z (ip), vehicle: carboxymethylcellulose (CMC)): 107 % of control
T/C (dose: 0.5 mg/kg/injection, schedule: Q01DX Z (ip), vehicle: carboxymethylcellulose (CMC)): 94 % of control
T/C (dose: 1.0 mg/kg/injection, schedule: Q01DX Z (ip), vehicle: carboxymethylcellulose (CMC)): 113 % of control
T/C (dose: 2.0 mg/kg/injection, schedule: Q01DX Z (ip), vehicle: carboxymethylcellulose (CMC)): 105 % of control

O=c1[nH]c(=O)n(C2CC(O)C(CO)O2)cc1F (stereo not given)
T/C [11]: 106 % of control
T/C [12]: 109 % of control and 100 % of control
T/C [13]: 112 % of control and 100 % of control
T/C [8]: 111 % of control
T/C [14]: 113 % of control
T/C (dose: 80.0 mg/kg/injection, schedule: Q01DX010 (ip), vehicle: saline): 118 % of control
T/C (dose: 100.0 mg/kg/injection, schedule: Q01DX Z (ip), vehicle: carboxymethylcellulose (CMC)): 156 % of control and 163 % of control
T/C (dose: 200.0 mg/kg/injection, schedule: Q01DX Z (ip), vehicle: carboxymethylcellulose (CMC)): 111 % of control and 124 % of control
T/C (dose: 400.0 mg/kg/injection, schedule: Q01DX Z (ip), vehicle: carboxymethylcellulose (CMC)): 108 % of control
T/C (dose: 800.0 mg/kg/injection, schedule: Q01DX Z (ip), vehicle: carboxymethylcellulose (CMC)): 86 % of control

Nc1nc(F)nc2c1ncn2C1OC(CO)C(O)C1O (stereo not given)
T/C [15]: 111 % of control
T/C [16]: 100 % of control
T/C (dose: 2.0 mg/kg/injection, schedule: Q01DX010 (ip), vehicle: saline): 88 % of control
T/C (dose: 4.0 mg/kg/injection, schedule: Q01DX010 (ip), vehicle: saline): 88 % of control
T/C (dose: 125.0 micrograms/kg/injection, schedule: Q01DX010 (ip), vehicle: saline): 88 % of control
T/C (dose: 500.0 micrograms/kg/injection, schedule: Q01DX010 (ip), vehicle: saline): 111 % of control
T/C (dose: 1000.0 micrograms/kg/injection, schedule: Q01DX010 (ip), vehicle: saline): 116 % of control

C1CN1c1nc(N2CC2)nc(N2CC2)n1
T/C (dose: 0.13 mg/kg/injection, schedule: Q01DX010 (ip), vehicle: saline): 88 % of control
T/C (dose: 0.25 mg/kg/injection, schedule: Q01DX010 (ip), vehicle: saline): 105 % of control and 88 % of control
T/C [15]: 111 % of control and 95 % of control
T/C [16]: 94 % of control

O=CN(O)CC(=O)O
T/C (dose: 31.25 mg/kg/injection, schedule: Q01DX Z (ip), vehicle: carboxymethylcellulose (CMC)): 110 % of control
T/C [5]: 100 % of control
T/C (dose: 62.5 mg/kg/injection, schedule: Q01DX Z (ip), vehicle: carboxymethylcellulose (CMC)): 104 % of control
T/C [6]: 100 % of control
T/C (dose: 125.0 mg/kg/injection, schedule: Q01DX Z (ip), vehicle: carboxymethylcellulose (CMC)): 100 % of control
T/C [7]: 100 % of control
T/C [9]: 110 % of control
T/C [10]: 88 % of control
T/C (dose: 500.0 mg/kg/injection, schedule: Q01DX Z (ip), vehicle: carboxymethylcellulose (CMC)): 106 % of control and 115 % of control
T/C (dose: 1000.0 mg/kg/injection, schedule: Q01DX Z (ip), vehicle: carboxymethylcellulose (CMC)): 100 % of control

Cc1cc(N(CCCl)CCCl)ccc1N=Nc1ccccc1C(=O)O
T/C (dose: 0.45 mg/kg/injection, schedule: Q01DX Z (ip), vehicle: carboxymethylcellulose (CMC)): 108 % of control
T/C (dose: 0.9 mg/kg/injection, schedule: Q01DX Z (ip), vehicle: carboxymethylcellulose (CMC)): 105 % of control
T/C (dose: 1.8 mg/kg/injection, schedule: Q01DX Z (ip), vehicle: carboxymethylcellulose (CMC)): 104 % of control
T/C (dose: 3.75 mg/kg/injection, schedule: Q01DX Z (ip), vehicle: carboxymethylcellulose (CMC)): 101 % of control
T/C [11]: 88 % of control and 90 % of control
T/C [17]: 108 % of control
T/C [12]: 90 % of control and 94 % of control
T/C [13]: 105 % of control and 90 % of control
T/C [14]: 94 % of control

CCCCCCCCCCCCNCCCCCCCCCCCC
T/C [17]: 108 % of control
T/C (dose: 15.0 mg/kg/injection, schedule: Q01DX Z (ip), vehicle: carboxymethylcellulose (CMC)): 106 % of control
T/C (dose: 30.0 mg/kg/injection, schedule: Q01DX Z (ip), vehicle: carboxymethylcellulose (CMC)): 110 % of control
T/C (dose: 60.0 mg/kg/injection, schedule: Q01DX Z (ip), vehicle: carboxymethylcellulose (CMC)): 116 % of control

CC(=O)O[C@]1(C(C)=O)CC[C@H]2[C@@H]3C[C@H](C)C4=CC(=O)C=C[C@]4(C)[C@@]3(F)[C@@H](O)C[C@@]21C
T/C (dose: 2.5 mg/kg/injection, schedule: Q01DX Z (sc), vehicle: steriod suspending solution): 95 % of control
T/C (dose: 5.0 mg/kg/injection, schedule: Q01DX Z (sc), vehicle: steriod suspending solution): 97 % of control
T/C (dose: 10.0 mg/kg/injection, schedule: Q01DX Z (sc), vehicle: steriod suspending solution): 101 % of control
T/C (dose: 12.5 mg/kg/injection, schedule: Q01DX010 (sc), vehicle: steriod suspending solution): 100 % of control
T/C (dose: 20.0 mg/kg/injection, schedule: Q01DX Z (sc), vehicle: steriod suspending solution): 107 % of control
T/C (dose: 25.0 mg/kg/injection, schedule: Q01DX010 (sc), vehicle: steriod suspending solution): 106 % of control
T/C (dose: 40.0 mg/kg/injection, schedule: Q01DX Z (sc), vehicle: steriod suspending solution): 118 % of control
T/C (dose: 50.0 mg/kg/injection, schedule: Q01DX010 (sc), vehicle: steriod suspending solution): 112 % of control
T/C (dose: 80.0 mg/kg/injection, schedule: Q01DX Z (sc), vehicle: steriod suspending solution): 100 % of control
T/C (dose: 100.0 mg/kg/injection, schedule: Q01DX010 (sc), vehicle: steriod suspending solution): 93 % of control
T/C (dose: 160.0 mg/kg/injection, schedule: Q01DX Z (sc), vehicle: steriod suspending solution): 90 % of control
